Source: publication PMC4835124 (Drug Design, Development and Therapy, 2016)
Like-named read-outs stand apart in the source and are kept apart here.

What was measured:
[1] = Comparative pharmacokinetic study; settings: for CL/F: fasting, n=35, mean ± SD; for Tmax: po
[2] = multiple dosing, 5–20 mg dose range, healthy volunteers; cited from earlier work
Food effect study = assay type: in vivo, human; settings: for CL/F: Part 2, FDC_EVO5/MET1000 single oral dose, n=27, mean ± SD
[3] = single administration in healthy volunteers; cited from earlier work
[4] = Part 1, EVO+MET (individual tablets) single oral dose
[5] = Part 1, FDC_EVO5/MET1000 single oral dose, plasma

CL/F [1, 4] [L/h]	CL/F [1, 5] [L/h]	Tmax ([1]; male, human, in vivo) [h]	half-life ([1]; male, human, in vivo, terminal half-life, present study) [min]	intrasubject variability in CL/F ([1]; present study)	CL/F (Food effect study; Fasted) [L/h]	CL/F (Food effect study; Fed) [L/h]	effect of food on pharmacokinetics (Food effect study; single oral dose of FDC_EVO5/MET1000, fed vs fasted)	increase of AUClast under the fed condition compared to the fasted condition (Food effect study; FDC_EVO5/MET1000 single oral dose)	Structure (SMILES)	dose linearity of pharmacokinetics [2]	effect of food on pharmacokinetics [3]	half-life [3] [h]
28.56 ± 8.64	28.81 ± 9.19	5	> 1440	around 10.0%	25.05 ± 6.68	23.76 ± 5.07	did not significantly affect	–	CC(C)(C)OC[C@@H]1C(=O)NCCN1C(=O)C[C@H](N)Cc1cc(F)c(F)cc1F [Evogliptin, evogliptin]	linear pharmacokinetics	not affected by food	≥ 30
126.15 ± 35.21	126.82 ± 38.28	4	–	–	112.95 ± 28.61	78.76 ± 20.56	–	36%–60%	CN(C)C(=N)N=C(N)N [Metformin, metformin]	–	–	–
